The NIST ThermoML archive (doi:10.1016/j.fluid.2017.01.019)

Test: xn = mol fraction of the nth substance listed
Settings: 100 kPa, Liquid; for speed of sound: Frequency=3 MHz, Sing-around technique in a fixed-path interferometer; for viscosity: Falling or rolling sphere viscometry; for mass density: Vibrating tube method

CCOS(=O)(=O)[O-].CCn1cc[n+](C)c1 [1-ethyl-3-methylimidazolium ethyl sulfate] + CO
Settings | mass density [kg/m3] | speed of sound [m/s] | viscosity [mPa·s]
293.15 K, x1 = 0.1067 | – | 1292.5 | –
293.15 K, x1 = 0.1996 | – | 1399.1 | –
293.15 K, x1 = 0.2919 | – | 1473.1 | –
293.15 K, x1 = 0.4021 | – | 1533.8 | –
293.15 K, x1 = 0.4918 | – | 1569.6 | –
293.15 K, x1 = 0.609 | – | 1606.4 | –
293.15 K, x1 = 0.7095 | – | 1632.8 | –
293.15 K, x1 = 0.8014 | – | 1652.9 | –
293.15 K, x1 = 0.904 | – | 1667.9 | –
293.15 K, x1 = 1 | – | 1682.3 | –
298.15 K, x1 = 0.1067 | 961.555 | – | 1.45
298.15 K, x1 = 0.1996 | 1042.5 | – | 3.84
298.15 K, x1 = 0.2919 | 1095.83 | – | 4.57
298.15 K, x1 = 0.4021 | 1138.91 | – | 7.83
298.15 K, x1 = 0.4918 | 1164.2 | – | 12.99
298.15 K, x1 = 0.609 | 1188.99 | – | 19.97
298.15 K, x1 = 0.7095 | 1204.69 | – | 31.61
298.15 K, x1 = 0.8014 | 1216.59 | – | 45.92
298.15 K, x1 = 0.904 | 1227.45 | – | 65.82
298.15 K, x1 = 1 | 1236.33 | – | 96.21
303.15 K, x1 = 0.1067 | 957.326 | 1278.1 | 1.35
303.15 K, x1 = 0.1996 | 1038.4 | 1386.3 | 3.29
303.15 K, x1 = 0.2919 | 1092.01 | 1459.8 | 4.15
303.15 K, x1 = 0.4021 | 1135.31 | 1522.6 | 7.09
303.15 K, x1 = 0.4918 | 1160.82 | 1556.9 | 11.38
303.15 K, x1 = 0.609 | 1185.52 | 1592.1 | 17.26
303.15 K, x1 = 0.7095 | 1201.31 | 1620.4 | 26.48
303.15 K, x1 = 0.8014 | 1213.11 | 1639.1 | 37.65
303.15 K, x1 = 0.904 | 1224.02 | 1655.7 | 53.03
303.15 K, x1 = 1 | 1232.93 | 1670 | 75.89
308.15 K, x1 = 0.1067 | 952.925 | 1263.8 | 1.26
308.15 K, x1 = 0.1996 | 1034.33 | 1372.7 | 2.8
308.15 K, x1 = 0.2919 | 1088.21 | 1446.5 | 3.78
308.15 K, x1 = 0.4021 | 1131.6 | 1509.8 | 6.42
308.15 K, x1 = 0.4918 | 1157.42 | 1544.4 | 10.02
308.15 K, x1 = 0.609 | 1182.08 | 1579.7 | 15.14
308.15 K, x1 = 0.7095 | 1198 | 1608.1 | 22.48
308.15 K, x1 = 0.8014 | 1209.7 | 1627 | 31.44
308.15 K, x1 = 0.904 | 1220.61 | 1643.6 | 43.71
308.15 K, x1 = 1 | 1229.57 | 1657.9 | 60.73
313.15 K, x1 = 0.1067 | 948.697 | 1249.6 | 1.17
313.15 K, x1 = 0.1996 | 1030.41 | 1359.3 | 2.47
313.15 K, x1 = 0.2919 | 1084.41 | 1433.5 | 3.48
313.15 K, x1 = 0.4021 | 1127.88 | 1497.1 | 5.85
313.15 K, x1 = 0.4918 | 1153.83 | 1531.8 | 8.91
313.15 K, x1 = 0.609 | 1178.56 | 1567.3 | 13.32
313.15 K, x1 = 0.7095 | 1194.76 | 1596 | 19.31
313.15 K, x1 = 0.8014 | 1206.29 | 1615 | 26.51
313.15 K, x1 = 0.904 | 1217.22 | 1631.6 | 36.28
313.15 K, x1 = 1 | 1226.21 | 1645.9 | 49.38
318.15 K, x1 = 0.1067 | 944.458 | 1235.4 | 1.09
318.15 K, x1 = 0.1996 | 1026.64 | 1345.8 | 2.23
318.15 K, x1 = 0.2919 | 1080.74 | 1420.5 | 3.21
318.15 K, x1 = 0.4021 | 1124.28 | 1484.5 | 5.34
318.15 K, x1 = 0.4918 | 1150.3 | 1519.3 | 7.96
318.15 K, x1 = 0.609 | 1175.06 | 1555 | 11.78
318.15 K, x1 = 0.7095 | 1191.48 | 1584 | 16.79
318.15 K, x1 = 0.8014 | 1202.9 | 1603.1 | 22.62
318.15 K, x1 = 0.904 | 1213.85 | 1619.7 | 30.46
318.15 K, x1 = 1 | 1222.87 | 1634.1 | 40.93
323.15 K, x1 = 0.1067 | 940.54 | 1221.4 | 1.02
323.15 K, x1 = 0.1996 | 1022.72 | 1332.3 | 1.95
323.15 K, x1 = 0.2919 | 1077.09 | 1407.6 | 2.96
323.15 K, x1 = 0.4021 | 1120.78 | 1471.9 | 4.85
323.15 K, x1 = 0.4918 | 1146.92 | 1506.8 | 7.08
323.15 K, x1 = 0.609 | 1171.65 | 1542.8 | 10.54
323.15 K, x1 = 0.7095 | 1188.29 | 1572.1 | 14.68
323.15 K, x1 = 0.8014 | 1199.51 | 1591.3 | 19.5
323.15 K, x1 = 0.904 | 1210.5 | 1607.9 | 25.98
323.15 K, x1 = 1 | 1219.54 | 1622.3 | 33.82

CCCCO [butan-1-ol] + CO
Settings | mass density [kg/m3] | speed of sound [m/s] | viscosity [mPa·s]
293.15 K, x1 = 0.0997 | – | – | 0.7
293.15 K, x1 = 0.1994 | – | – | 0.83
293.15 K, x1 = 0.3068 | – | – | 0.99
293.15 K, x1 = 0.3991 | – | – | 1.15
293.15 K, x1 = 0.5082 | – | – | 1.36
293.15 K, x1 = 0.604 | – | – | 1.57
293.15 K, x1 = 0.6992 | – | – | 1.77
293.15 K, x1 = 0.7994 | – | – | 2.05
293.15 K, x1 = 0.9038 | – | – | 2.34
293.15 K, x1 = 1 | – | – | 2.61
298.15 K, x1 = 0.0997 | 791.339 | 1130.6 | –
298.15 K, x1 = 0.1994 | 794.665 | 1150 | –
298.15 K, x1 = 0.3068 | 797.503 | 1169.2 | –
298.15 K, x1 = 0.3991 | 799.477 | 1183.5 | –
298.15 K, x1 = 0.5082 | 801.494 | 1197 | –
298.15 K, x1 = 0.604 | 802.958 | 1210.3 | –
298.15 K, x1 = 0.6992 | 804.13 | 1218 | –
298.15 K, x1 = 0.7994 | 805.057 | 1228.8 | –
298.15 K, x1 = 0.9038 | 805.689 | 1235.8 | –
298.15 K, x1 = 1 | 806.27 | 1241.1 | –
303.15 K, x1 = 0.0997 | 786.81 | 1114.2 | 0.65
303.15 K, x1 = 0.1994 | 790.266 | 1133.6 | 0.76
303.15 K, x1 = 0.3068 | 793.243 | 1152.4 | 0.91
303.15 K, x1 = 0.3991 | 795.305 | 1166.7 | 1.05
303.15 K, x1 = 0.5082 | 797.42 | 1180.4 | 1.23
303.15 K, x1 = 0.604 | 798.956 | 1193.7 | 1.41
303.15 K, x1 = 0.6992 | 800.184 | 1201.4 | 1.59
303.15 K, x1 = 0.7994 | 801.155 | 1212.1 | 1.83
303.15 K, x1 = 0.9038 | 801.817 | 1219.1 | 2.08
303.15 K, x1 = 1 | 802.42 | 1224.3 | 2.31
308.15 K, x1 = 0.0997 | 782.263 | 1097.9 | 0.6
308.15 K, x1 = 0.1994 | 785.837 | 1117.3 | 0.71
308.15 K, x1 = 0.3068 | 788.95 | 1136.4 | 0.84
308.15 K, x1 = 0.3991 | 791.101 | 1150.6 | 0.96
308.15 K, x1 = 0.5082 | 793.315 | 1163.9 | 1.12
308.15 K, x1 = 0.604 | 794.922 | 1177.2 | 1.28
308.15 K, x1 = 0.6992 | 796.169 | 1184.8 | 1.43
308.15 K, x1 = 0.7994 | 797.222 | 1195.5 | 1.64
308.15 K, x1 = 0.9038 | 797.914 | 1202.4 | 1.86
308.15 K, x1 = 1 | 798.536 | 1207.5 | 2.07
313.15 K, x1 = 0.0997 | 777.683 | 1081.8 | 0.56
313.15 K, x1 = 0.1994 | 781.397 | 1101 | 0.66
313.15 K, x1 = 0.3068 | 784.606 | 1119.8 | 0.77
313.15 K, x1 = 0.3991 | 786.863 | 1134.2 | 0.88
313.15 K, x1 = 0.5082 | 789.167 | 1147.5 | 1.02
313.15 K, x1 = 0.604 | 790.889 | 1160.7 | 1.18
313.15 K, x1 = 0.6992 | 792.224 | 1168.3 | 1.29
313.15 K, x1 = 0.7994 | 793.273 | 1178.9 | 1.47
313.15 K, x1 = 0.9038 | 793.979 | 1185.7 | 1.66
313.15 K, x1 = 1 | 794.617 | 1190.9 | 1.85
318.15 K, x1 = 0.0997 | 773.076 | 1065.7 | 0.53
318.15 K, x1 = 0.1994 | 776.932 | 1084.9 | 0.61
318.15 K, x1 = 0.3068 | 780.263 | 1103.6 | 0.71
318.15 K, x1 = 0.3991 | 782.592 | 1118 | 0.81
318.15 K, x1 = 0.5082 | 784.996 | 1131.2 | 0.93
318.15 K, x1 = 0.604 | 786.847 | 1144.4 | 1.05
318.15 K, x1 = 0.6992 | 788.248 | 1151.8 | 1.17
318.15 K, x1 = 0.7994 | 789.325 | 1162.4 | 1.33
318.15 K, x1 = 0.9038 | 789.993 | 1169.2 | 1.49
318.15 K, x1 = 1 | 790.655 | 1174.2 | 1.66
323.15 K, x1 = 0.0997 | 768.447 | 1049.7 | 0.51
323.15 K, x1 = 0.1994 | 772.448 | 1068.9 | 0.58
323.15 K, x1 = 0.3068 | 775.921 | 1087.5 | 0.66
323.15 K, x1 = 0.3991 | 778.306 | 1101.8 | 0.75
323.15 K, x1 = 0.5082 | 780.936 | 1115 | 0.86
323.15 K, x1 = 0.604 | 782.762 | 1128 | 0.96
323.15 K, x1 = 0.6992 | 784.201 | 1135.4 | 1.06
323.15 K, x1 = 0.7994 | 785.373 | 1145.9 | 1.2
323.15 K, x1 = 0.9038 | 785.98 | 1152.6 | 1.35
323.15 K, x1 = 1 | 786.645 | 1157.6 | 1.5
